How the values were obtained:
[1] = system: MC3T3E1 cells; test: Cell adhesion on PLAGA matrices (crystal violet stain); type: cell-based; conditions: 100 μM vs untreated, adhesion for at least 1 h
Description: FIG. 2. Effects of 6-Bnz-cAMP on cell adhesion in MC3T3E1 on PLAGA matrices. Cells were treated with 100 μM 6-Bnz-cAMP or untreated. Cells were allowed to adhere for at least 1 h, and nonadherent cells were removed by washing with phosphate buffer saline (PBS). The adhered cells were stained with crystal violet solution for 15 minutes at room temperature and the absorbed stain dye was then solubilized in 1% SDS solution. The amount of dye taken up by the cells was measured in a spectrophotometer. The plots shown are representative of two independent experiments, each done in triplicate (n=3). Error bars represent SD.
For these experiments, the polymer component of the scaffold, poly(lactic-co-glycolide) (PLAGA) was selected because of its documented degradability and biocompatibility.
More specifically, thin film discs of poly(lactic-co-glycolide) (PLAGA) were fabricated using a traditional solvent-casting method. In this process, the polymer was first dissolved in methylene chloride, then poured into a Teflon-coated dish. The dishes were then placed in a −20° C. freezer to allow solvent evaporation. […]
Adhesion: In the cell adhesion study presented in FIG. 2 cells were allowed to adhere for at least 1 h, and nonadherent cells were removed by washing with phosphate buffer saline (PBS). […] The amount of dye taken up by the cells was measured in a spectrophotometer.

[2] = system: rat mesenchymal stem cells; test: Quantitative calcium levels in mesenchymal stem cells; type: cell-based; conditions: vs control untreated cells and cells supplemented with BMP-2 peptide
Description: FIG. 9. Quantitative calcium levels determined in untreated (control) rat mesenchymal stem cells and cells treated with BMP-2 or 6-Bnz-cAMP. Keys: D-BMP-2 peptide; E-6-Bnz-cAMP; F-Control.
Cell adhesion, proliferation, and differentiation studies: Rabbit MSCs are plated onto PLAGA matrices at a plating density of 1×10^4 cells/cm^2 and cultured in standard basal medium. Four experimental groups are tested: (1) untreated cells, (2) 6-Bnz-cAMP treated cells, (3) BMP-2 treated cells, and (4) 6-Bnz-cAMP and BMP-2 treated cells. […] Initial cell adhesion is determined at 1 h, 3 h, 12 h, and 24 h. Cell proliferation and cell differentiation are determined at 1, 7, 14, and 21 days. Calcium deposition and ALP activity is also measured at days 3, 7, 14, and 21 in untreated cells compared to cells treated with BMP-2 or 6-Bnz-cAMP (FIGS. 9 and 10). […] For the cell adhesion assay, attached cells are quantified by crystal violet stain, a method routinely used to measure the initial cell adhesion. Cell proliferation is measured using a commercially available proliferation assay kit, MTS (Promega). For alkaline phosphatase (ALP) activity, the early markers of osteoblast differentiation are determined with a commercially availia ALP assay kit (Bio-rad). […] PCR amplification will be carried out and the resulting products will be analyzed by DNA gel electrophoresis and sequencing. […]

[3] = system: MC3T3-E1 cells; test: Trypan blue viability assay; type: cell-based; conditions: 100 micromolar, days 7, 14 and 21
Description: FIG. 7. MC3T3-E1 cell viability of cells treated with 6-Bnz-cAMP compared to untreated cells. Cell viability was measured by trypan blue viability stain.
Viability: Cell viability is determined using a trypan blue viability assay. For trypan blue viability assay method, at day 7, 14, and 21, cells were collected by trypsinization and stained with trypan blue dye (MP Biochemicals LLC, Solon, Ohio). The cells were then numbered in a hemacytometer (Hausser Scientific, Horsham, Pa.) under a light microscopy (Olympus Corporation, Tokyo, Japan). Cell stained blue was scored a dead cell, while unstained cell was scored a live cell. The results are presented in % of viability.
MC3T3-E1 cells were grown in mineralization media. 6-Bnz-cAMP was added to the culture medium to a final concentration of 100 μM for experiments; mineralization media only was used for positive controls. Osteoblast-associated markers were quantitated at days 7 and 14. Markers include increased alkaline phosphatas (ALP) activity (FIG. 5) and calcium precipitation in MC3T3-E1 cells (FIG. 6). 6-Bnz-cAMP toxicity was assessed at days 7, 14, and 21 in cells treated with 100 micromolar 6-Bnz-cAMP compared to untreated cells. Trypan blue staining was used to visualize cells (FIG. 7).

[4] = water and a variety of pharmaceutically useful buffers and solvents; cited from earlier work

**Q.** For `O=C(Nc1ncnc2c1ncn2C1O[C@@H]2COP(=O)([O-])O[C@H]2[C@H]1O)c1ccccc1.[Na+]` (stereo partly shown) [6-Bnz-cAMP, N^6-Benzoyladenosine-3′,5′-cyclic monophosphate], which initial cell adhesion [1] is on record?
**A.** enhances the initial cell adhesion

**Q.** And the calcium deposition [2]?
**A.** further enhanced calcium deposition

**Q.** What about the “cell viability vs untreated cells” value [3] of the same molecule?
**A.** No significant differences

**Q.** What about the solubility [4] of the same molecule?
**A.** soluble in water

Reference: patent US20110217337A1, “BIOACTIVE AGENT FOR BONE TISSUE ENGINEERING” (UNIVERSITY OF CONNECTICUT, priority 2010, published 2011)
